Target: MC4-R (Homo sapiens, UniProt P32245)
Experiment: cAMP Scintillation Proximity Assay (SPA) in cells expressing MC4-R
Format: cell-based
Settings: intercellular cAMP concentration by SPA kit, read-out: in vitro potency (as measured by EC50 value)
Method: EC50 values of test compounds were determined by treating cells expressing MC4-R with test compound and lysing the cells and measuring intercellular cAMP concentration with an Amersham-Pharmacia RPA-559 cAMP Scintillation Proximity Assay (SPA) kit. The following compounds were synthesized and tested according to this assay. The following compounds are merely illustrative and should not be construed as limiting of the instant invention.

Sequence of MC4-R (P32245 whole entry, species assumed): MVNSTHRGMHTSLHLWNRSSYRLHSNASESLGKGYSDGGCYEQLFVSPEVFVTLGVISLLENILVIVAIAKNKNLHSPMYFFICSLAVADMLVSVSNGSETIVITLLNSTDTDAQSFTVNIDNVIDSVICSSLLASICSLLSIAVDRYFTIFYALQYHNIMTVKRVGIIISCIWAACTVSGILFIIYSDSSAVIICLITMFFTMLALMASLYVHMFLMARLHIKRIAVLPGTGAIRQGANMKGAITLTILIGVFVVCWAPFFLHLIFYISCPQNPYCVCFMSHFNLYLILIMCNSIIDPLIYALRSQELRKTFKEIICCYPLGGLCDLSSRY

SMILES | EC50 [µM]
Cc1ccc(CCc2nc3ccc(NC(=N[C@H]4C[C@H]5C[C@@H]([C@@H]4C)C5(C)C)N4CCN[C@@H](C)C4)cc3[nH]2)c(C)c1 [Example 24, (3S)-N-{2-[2-(2,4-dimethylphenyl)ethyl]-1H-benzimidazol-6-yl}-3-methyl-N′-[(1S,2S,3S,5R)-2,6,6-trimethylbicyclo[3.1.1]hept-3-yl]piperazine-1-carboximidamide] | < 3
C[C@@H]1[C@@H](N=C(Nc2ccc3nc(CCc4ccc(F)cc4Cl)[nH]c3c2)N2CCN[C@@H](C)C2)C[C@H]2C[C@@H]1C2(C)C [Example 25, (3S)-N-{2-[2-(2-chloro-4-fluorophenyl)ethyl]-1H-benzimidazol-6-yl}-3-methyl-N′-[(1S,2S,3S,5R)-2,6,6-trimethylbicyclo[3.1.1]hept-3-yl]piperazine-1-carboximidamide] | < 3
